The values below come from ChEMBL document CHEMBL2375306, “Antimicrobial peptides containing unnatural amino acid exhibit potent bactericidal activity against ESKAPE pathogens” (Bioorg Med Chem, 2013).

Assay type in all cases: functional
One experiment has as its system Acinetobacter baumannii. Put plainly: Antibacterial activity against Acinetobacter baumannii WRAIR clinical isolate 13 after 24 hrs by broth microdilution method. The settings on record: WRAIR clinical isolate 13, 24 h. In general terms: Broth dilution looks for growth in wells or tubes with falling amounts of substance.
The test system of another experiment is Staphylococcus aureus. Put plainly: Antibacterial activity against methicillin-sensitive Staphylococcus aureus UAMS-1 after 24 hrs by broth microdilution method. Particulars: UAMS-1, 24 h.
The next experiment relates to Klebsiella aerogenes. Briefly: Antibacterial activity against Enterobacter aerogenes after 24 hrs by broth microdilution method.
The test system of a further experiment is Enterococcus faecium. Put plainly: Antibacterial activity against Enterococcus faecium MMC4 after 24 hrs by broth microdilution method. Particulars: MMC4, 24 h.
The next experiment relates to Klebsiella pneumoniae. Put plainly: Antibacterial activity against Klebsiella pneumoniae BAMS clinical isolate 07-18 after 24 hrs by broth microdilution method. The settings on record: BAMS clinical isolate 07-18, 24 h.
The next experiment has as its system Pseudomonas aeruginosa. Briefly: Antibacterial activity against Pseudomonas aeruginosa PAO1 after 24 hrs by broth microdilution method. Particulars: PAO1, 24 h.

Converted amounts (≈) assume the structure as drawn. Square brackets hold non-standard residues; d marks the D form. Peptide text beside a SMILES is read from it. * marks the point of attachment. ξ: configuration not given here. Phe(4-NO2) = N[C@@H](Cc1ccc([N+](=O)[O-])cc1)C(=O)O; Pro(3ξ,4ξ-(CH2)4) = O=C(O)[C@H]1NCC2CCCCC21; Phe(4-F) = N[C@@H](Cc1ccc(F)cc1)C(=O)O; Tic = O=C(O)[C@@H]1Cc2ccccc2CN1; X5 = CC(=O)NC(=O)[C@H](CCCCN)N*; X1 = CC(=O)NC(=O)[C@H](CN)N*; Dap = NC[C@H](N)C(=O)O; GABA = NCCCC(=O)O; βAla = NCCC(=O)O Bounds are passed on as bounds.

As a reminder, the MBC is the lowest tested concentration that kills the bacteria rather than only halting them. What is called MIC is the lowest concentration that inhibits growth of the organism. The low end stands for a more susceptible organism, the high end for a less susceptible organism. `CC(=O)NCC(=O)N[C@@H](Cc1ccc(F)cc1)C(=O)N1Cc2ccccc2C[C@H]1C(=O)N1CC2CCCCC2[C@H]1C(=O)NCC(=O)N[C@@H](CCCCN)C(=O)N1Cc2ccccc2C[C@H]1C(=O)N1CC2CCCCC2[C@H]1C(=O)NCC(=O)N[C@@H](Cc1ccc(F)cc1)C(=O)N1Cc2ccccc2C[C@H]1C(=O)N1CC2CCCCC2[C@H]1C(=O)NCC(=O)N[C@@H](CCCCN)C(=O)N1Cc2ccccc2C[C@H]1C(=O)N[C@@H](CCCCN)C(=O)N[C@@H](CCCCN)C(=O)N[C@@H](CCCCN)C(=O)N[C@@H](CCCCN)C(N)=O` (some centres undefined) (Ac-G[Phe(4-F)][Tic][Pro(3ξ,4ξ-(CH2)4)]GK[Tic][Pro(3ξ,4ξ-(CH2)4)]G[Phe(4-F)][Tic][Pro(3ξ,4ξ-(CH2)4)]GK[Tic]KKKK-NH2): the MBC with Acinetobacter baumannii was 25 µg/mL (≈ 10.1 µM); in the experiment on Staphylococcus aureus, 100 µg/mL (≈ 40.4 µM); with Klebsiella aerogenes, above 100 µg/mL; in the experiment with Enterococcus faecium, 50 µg/mL (≈ 20.2 µM); against Klebsiella pneumoniae, 100 µg/mL (≈ 40.4 µM); against Pseudomonas aeruginosa, above 100 µg/mL. Also, the MIC is 12.5 µg/mL (≈ 5.05 µM) with Acinetobacter baumannii; 100 µg/mL (≈ 40.4 µM) against Staphylococcus aureus; above 100 µg/mL against Klebsiella aerogenes; 25 µg/mL (≈ 10.1 µM) against Enterococcus faecium; 100 µg/mL (≈ 40.4 µM) with Klebsiella pneumoniae; above 100 µg/mL with Pseudomonas aeruginosa.

On to `CC(=O)NCC(=O)N[C@@H](Cc1ccc([N+](=O)[O-])cc1)C(=O)N1Cc2ccccc2C[C@H]1C(=O)N1CC2CCCCC2[C@H]1C(=O)NCC(=O)N[C@@H](CCCCN)C(=O)N1Cc2ccccc2C[C@H]1C(=O)N1CC2CCCCC2[C@H]1C(=O)NCC(=O)N[C@@H](Cc1ccc([N+](=O)[O-])cc1)C(=O)N1Cc2ccccc2C[C@H]1C(=O)N1CC2CCCCC2[C@H]1C(=O)NCC(=O)N[C@@H](CCCCN)C(=O)N1Cc2ccccc2C[C@H]1C(=O)N[C@@H](CCCCN)C(=O)N[C@@H](CCCCN)C(=O)N[C@@H](CCCCN)C(=O)N[C@@H](CCCCN)C(N)=O` (some centres undefined) (Ac-G[Phe(4-NO2)][Tic][Pro(3ξ,4ξ-(CH2)4)]GK[Tic][Pro(3ξ,4ξ-(CH2)4)]G[Phe(4-NO2)][Tic][Pro(3ξ,4ξ-(CH2)4)]GK[Tic]KKKK-NH2), for which the MBC was 12.5 µg/mL (≈ 4.94 µM) in the experiment on Acinetobacter baumannii; above 100 µg/mL against Staphylococcus aureus; 100 µg/mL (≈ 39.5 µM) with Klebsiella aerogenes; 50 µg/mL (≈ 19.8 µM) against Enterococcus faecium; 50 µg/mL (≈ 19.8 µM) with Klebsiella pneumoniae; 100 µg/mL (≈ 39.5 µM) against Pseudomonas aeruginosa. Also, the MIC with Acinetobacter baumannii amounted to 12.5 µg/mL (≈ 4.94 µM); in the experiment with Staphylococcus aureus, 100 µg/mL (≈ 39.5 µM); against Klebsiella aerogenes, 100 µg/mL (≈ 39.5 µM); against Enterococcus faecium, 25 µg/mL (≈ 9.88 µM); with Klebsiella pneumoniae it was 50 µg/mL (≈ 19.8 µM); in the experiment on Pseudomonas aeruginosa, 50 µg/mL (≈ 19.8 µM).

`CC(=O)N[C@@H](CCCCN)C(=O)N[C@@H](CCCCN)C(=O)N[C@@H](CCCCN)C(=O)N[C@@H](CCCCN)C(=O)NCC(=O)N[C@@H](Cc1ccccc1)C(=O)N1Cc2ccccc2C[C@H]1C(=O)N1CC2CCCCC2[C@H]1C(=O)NCC(=O)N[C@@H](CCCCN)C(=O)N1Cc2ccccc2C[C@H]1C(=O)N1CC2CCCCC2[C@H]1C(=O)NCC(=O)N[C@@H](Cc1ccccc1)C(=O)N1Cc2ccccc2C[C@H]1C(=O)N1CC2CCCCC2[C@H]1C(=O)NCC(=O)N[C@@H](CCCCN)C(=O)N1Cc2ccccc2C[C@H]1C(N)=O` (some centres undefined) (Ac-KKKKGF[Tic][Pro(3ξ,4ξ-(CH2)4)]GK[Tic][Pro(3ξ,4ξ-(CH2)4)]GF[Tic][Pro(3ξ,4ξ-(CH2)4)]GK[Tic]-NH2): the MBC in the experiment with Acinetobacter baumannii is 25 µg/mL (≈ 10.2 µM); in the experiment on Staphylococcus aureus it was above 100 µg/mL; against Klebsiella aerogenes it was above 100 µg/mL; against Enterococcus faecium it was above 100 µg/mL; in the experiment on Klebsiella pneumoniae it was 100 µg/mL (≈ 41 µM); against Pseudomonas aeruginosa it was above 100 µg/mL. Further, the MIC against Acinetobacter baumannii is 12.5 µg/mL (≈ 5.12 µM); with Staphylococcus aureus, above 100 µg/mL; against Klebsiella aerogenes it was above 100 µg/mL; in the experiment on Enterococcus faecium it was 25 µg/mL (≈ 10.2 µM); with Klebsiella pneumoniae, 100 µg/mL (≈ 41 µM); against Pseudomonas aeruginosa, above 100 µg/mL.

Consider `CC(=O)N[C@@H](CCCCN)C(=O)N[C@@H](CC(C)C)C(=O)N1Cc2ccccc2C[C@H]1C(=O)N1CC2CCCCC2[C@H]1C(=O)N[C@@H](CCCCN)C(=O)N1Cc2ccccc2C[C@H]1C(=O)N1CC2CCCCC2[C@H]1C(=O)N[C@@H](Cc1ccccc1)C(=O)N1Cc2ccccc2C[C@H]1C(=O)N1CC2CCCCC2[C@H]1C(=O)N[C@@H](CCCCN)C(=O)N1Cc2ccccc2C[C@H]1C(=O)N1CC2CCCCC2[C@H]1C(=O)N[C@@H](Cc1ccccc1)C(=O)N1Cc2ccccc2C[C@H]1C(=O)N1CC2CCCCC2[C@H]1C(=O)N[C@@H](CCCCN)C(=O)N1Cc2ccccc2C[C@H]1C(=O)N1CC2CCCCC2[C@H]1C(=O)N[C@@H](CCCCN)C(=O)N[C@@H](CCCCN)C(=O)N[C@@H](CCCCN)C(=O)N[C@@H](CCCCN)C(N)=O` (some centres undefined) (Ac-KL[Tic][Pro(3ξ,4ξ-(CH2)4)]K[Tic][Pro(3ξ,4ξ-(CH2)4)]F[Tic][Pro(3ξ,4ξ-(CH2)4)]K[Tic][Pro(3ξ,4ξ-(CH2)4)]F[Tic][Pro(3ξ,4ξ-(CH2)4)]K[Tic][Pro(3ξ,4ξ-(CH2)4)]KKKK-NH2), for which the MBC with Acinetobacter baumannii is 100 µg/mL (≈ 29.8 µM); against Staphylococcus aureus, 50 µg/mL (≈ 14.9 µM); in the experiment on Klebsiella aerogenes, above 100 µg/mL; in the experiment on Enterococcus faecium, 25 µg/mL (≈ 7.45 µM); in the experiment with Klebsiella pneumoniae, above 100 µg/mL; against Pseudomonas aeruginosa, above 100 µg/mL. Also, the MIC was 100 µg/mL (≈ 29.8 µM) against Acinetobacter baumannii; 50 µg/mL (≈ 14.9 µM) against Staphylococcus aureus; above 100 µg/mL against Klebsiella aerogenes; 12.5 µg/mL (≈ 3.73 µM) in the experiment on Enterococcus faecium; above 100 µg/mL against Klebsiella pneumoniae; above 100 µg/mL with Pseudomonas aeruginosa.

With `CC(=O)NCCCC(=O)N[C@@H](Cc1ccccc1)C(=O)N1Cc2ccccc2C[C@H]1C(=O)N1CC2CCCCC2[C@H]1C(=O)NCCCC(=O)N[C@@H](CCCCN)C(=O)N1Cc2ccccc2C[C@H]1C(=O)N1CC2CCCCC2[C@H]1C(=O)NCCCC(=O)N[C@@H](Cc1ccccc1)C(=O)N1Cc2ccccc2C[C@H]1C(=O)N1CC2CCCCC2[C@H]1C(=O)NCCCC(=O)N[C@@H](CCCCN)C(=O)N1Cc2ccccc2C[C@H]1C(=O)N[C@@H](CCCCN)C(=O)N[C@@H](CCCCN)C(=O)N[C@@H](CCCCN)C(=O)N[C@@H](CCCCN)C(N)=O` (some centres undefined) (Ac-[GABA]F[Tic][Pro(3ξ,4ξ-(CH2)4)][GABA]K[Tic][Pro(3ξ,4ξ-(CH2)4)][GABA]F[Tic][Pro(3ξ,4ξ-(CH2)4)][GABA]K[Tic]KKKK-NH2), the MBC in the experiment on Acinetobacter baumannii is 25 µg/mL (≈ 9.79 µM); with Staphylococcus aureus it was above 100 µg/mL; in the experiment with Klebsiella aerogenes, above 100 µg/mL; against Enterococcus faecium, 25 µg/mL (≈ 9.79 µM); with Klebsiella pneumoniae, 100 µg/mL (≈ 39.2 µM); against Pseudomonas aeruginosa it was above 100 µg/mL. The MIC against Acinetobacter baumannii was 12.5 µg/mL (≈ 4.9 µM); with Staphylococcus aureus, above 100 µg/mL; in the experiment with Klebsiella aerogenes, above 100 µg/mL; in the experiment on Enterococcus faecium, 12.5 µg/mL (≈ 4.9 µM); in the experiment on Klebsiella pneumoniae it was 100 µg/mL (≈ 39.2 µM); in the experiment with Pseudomonas aeruginosa, above 100 µg/mL.

On to `CC(=O)NCCC(=O)N[C@@H](Cc1ccccc1)C(=O)N1Cc2ccccc2C[C@H]1C(=O)N1CC2CCCCC2[C@H]1C(=O)NCCC(=O)N[C@@H](CCCCN)C(=O)N1Cc2ccccc2C[C@H]1C(=O)N1CC2CCCCC2[C@H]1C(=O)NCCC(=O)N[C@@H](Cc1ccccc1)C(=O)N1Cc2ccccc2C[C@H]1C(=O)N1CC2CCCCC2[C@H]1C(=O)NCCC(=O)N[C@@H](CCCCN)C(=O)N1Cc2ccccc2C[C@H]1C(=O)N[C@@H](CCCCN)C(=O)N[C@@H](CCCCN)C(=O)N[C@@H](CCCCN)C(=O)N[C@@H](CCCCN)C(=O)NC(C)=O` (some centres undefined) (Ac-[βAla]F[Tic][Pro(3ξ,4ξ-(CH2)4)][βAla]K[Tic][Pro(3ξ,4ξ-(CH2)4)][βAla]F[Tic][Pro(3ξ,4ξ-(CH2)4)][βAla]K[Tic]KKK-X5), for which the minimum bactericidal concentration (MBC) in the experiment on Acinetobacter baumannii is 25 µg/mL (≈ 9.85 µM); in the experiment on Staphylococcus aureus, above 100 µg/mL; against Klebsiella aerogenes it was above 100 µg/mL; against Enterococcus faecium, 50 µg/mL (≈ 19.7 µM); against Klebsiella pneumoniae, above 100 µg/mL; against Pseudomonas aeruginosa, above 100 µg/mL. The MIC against Acinetobacter baumannii is 12.5 µg/mL (≈ 4.92 µM); against Staphylococcus aureus, above 100 µg/mL; in the experiment on Klebsiella aerogenes, above 100 µg/mL; against Enterococcus faecium, 25 µg/mL (≈ 9.85 µM); against Klebsiella pneumoniae, above 100 µg/mL; against Pseudomonas aeruginosa it was above 100 µg/mL.

On to `CC(=O)NCCC(=O)N[C@@H](Cc1ccc(F)cc1)C(=O)N1Cc2ccccc2C[C@H]1C(=O)N1CC2CCCCC2[C@H]1C(=O)NCCC(=O)N[C@@H](CN)C(=O)N1Cc2ccccc2C[C@H]1C(=O)N1CC2CCCCC2[C@H]1C(=O)NCCC(=O)N[C@@H](Cc1ccc(F)cc1)C(=O)N1Cc2ccccc2C[C@H]1C(=O)N1CC2CCCCC2[C@H]1C(=O)NCCC(=O)N[C@@H](CN)C(=O)N1Cc2ccccc2C[C@H]1C(=O)N[C@@H](CN)C(=O)N[C@@H](CN)C(=O)N[C@@H](CN)C(=O)N[C@@H](CN)C(=O)NC(C)=O` (some centres undefined) (Ac-[βAla][Phe(4-F)][Tic][Pro(3ξ,4ξ-(CH2)4)][βAla][Dap][Tic][Pro(3ξ,4ξ-(CH2)4)][βAla][Phe(4-F)][Tic][Pro(3ξ,4ξ-(CH2)4)][βAla][Dap][Tic][Dap][Dap][Dap]-X1), for which the MBC is 25 µg/mL (≈ 10.8 µM) against Acinetobacter baumannii; above 100 µg/mL against Staphylococcus aureus; 25 µg/mL (≈ 10.8 µM) in the experiment with Klebsiella aerogenes; above 100 µg/mL with Enterococcus faecium; 25 µg/mL (≈ 10.8 µM) with Klebsiella pneumoniae; 50 µg/mL (≈ 21.5 µM) in the experiment on Pseudomonas aeruginosa. The MIC in the experiment on Acinetobacter baumannii was 12.5 µg/mL (≈ 5.38 µM); in the experiment on Staphylococcus aureus, above 100 µg/mL; in the experiment with Klebsiella aerogenes, 25 µg/mL (≈ 10.8 µM); with Enterococcus faecium, 50 µg/mL (≈ 21.5 µM); against Klebsiella pneumoniae, 12.5 µg/mL (≈ 5.38 µM); in the experiment on Pseudomonas aeruginosa, 25 µg/mL (≈ 10.8 µM).
